Activity calls are given as the source filed them.
Key:
Assay type in all cases: functional, cell-based
[1] = tested on: Small intestinal epithelial cell; test: Antiinflammatory activity against TNFalpha/INFgamma induced human small intestinal epithelial cells assessed as reduction in COX-2 level
[2] = tested on: A 172; test: Neuroprotective activity against human A-172 cells assessed as effect on BDNF level
[3] = tested on: Small intestinal epithelial cell; test: Antiinflammatory activity against TNFalpha/INFgamma induced human small intestinal epithelial cells assessed as reduction in IL-6 level
[4] = tested on: A 172; test: Neuroprotective activity against human A-172 cells assessed as effect on GABA level

Measured: Activity

C=CCc1ccc(O)c(OC)c1
active: [1] | [2] | [3] | [4]

CN(C)CCc1c[nH]c2cccc(OP(=O)(O)O)c12
active: [1] | [2] | [3] | [4]

Source: ChEMBL document CHEMBL5344465, “Innovations in Pharmacology: Enhancing Bioavailability and Efficacy through Novel Compositions” (ACS Med Chem Lett, 2024)
